Results from ChEMBL document CHEMBL5705888, “Substrate specificity and inhibitors of LRRK2, a protein kinase mutated in Parkinson's disease” (Biochem J, 2009).

Experiments:
[1] = target: T1, Serine/threonine-protein kinase TBK1 (Homo sapiens) (UniProt Q9UHD2); experiment: Inhibition of TBK1 (unknown origin) at 10 uM incubated for 30 mins in presence of [gamma-33P]ATP by multidrop micro reagent based assay relative to control; values are per cent of control
T1 sequence (whole entry): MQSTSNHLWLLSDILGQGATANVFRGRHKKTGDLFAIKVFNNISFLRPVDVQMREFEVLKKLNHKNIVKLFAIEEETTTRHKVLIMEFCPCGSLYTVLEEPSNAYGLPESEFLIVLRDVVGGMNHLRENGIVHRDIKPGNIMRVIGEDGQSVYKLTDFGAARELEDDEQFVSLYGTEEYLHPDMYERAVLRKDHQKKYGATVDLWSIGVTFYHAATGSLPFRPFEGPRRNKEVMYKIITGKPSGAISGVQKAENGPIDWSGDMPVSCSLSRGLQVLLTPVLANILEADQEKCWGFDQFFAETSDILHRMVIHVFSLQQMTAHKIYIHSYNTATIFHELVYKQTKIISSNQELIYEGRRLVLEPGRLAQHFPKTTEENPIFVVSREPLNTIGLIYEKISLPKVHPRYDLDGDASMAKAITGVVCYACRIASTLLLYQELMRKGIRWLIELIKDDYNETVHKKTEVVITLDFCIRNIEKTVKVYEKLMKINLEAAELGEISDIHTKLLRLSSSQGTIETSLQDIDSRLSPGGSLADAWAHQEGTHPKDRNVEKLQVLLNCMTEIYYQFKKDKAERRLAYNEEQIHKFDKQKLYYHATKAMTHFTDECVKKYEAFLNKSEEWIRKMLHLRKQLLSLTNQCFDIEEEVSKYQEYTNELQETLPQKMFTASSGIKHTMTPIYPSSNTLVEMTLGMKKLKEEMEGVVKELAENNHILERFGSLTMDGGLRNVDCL

[2] = target: Mitogen-activated protein kinase 11 (Homo sapiens) (UniProt Q15759); experiment: Inhibition of p38beta MAPK (unknown origin) at 10 uM incubated for 30 mins in presence of [gamma-33P]ATP by multidrop micro reagent based assay relative to control; values are per cent of control
Sequence of Mitogen-activated protein kinase 11 (Homo sapiens) (Q15759 whole entry): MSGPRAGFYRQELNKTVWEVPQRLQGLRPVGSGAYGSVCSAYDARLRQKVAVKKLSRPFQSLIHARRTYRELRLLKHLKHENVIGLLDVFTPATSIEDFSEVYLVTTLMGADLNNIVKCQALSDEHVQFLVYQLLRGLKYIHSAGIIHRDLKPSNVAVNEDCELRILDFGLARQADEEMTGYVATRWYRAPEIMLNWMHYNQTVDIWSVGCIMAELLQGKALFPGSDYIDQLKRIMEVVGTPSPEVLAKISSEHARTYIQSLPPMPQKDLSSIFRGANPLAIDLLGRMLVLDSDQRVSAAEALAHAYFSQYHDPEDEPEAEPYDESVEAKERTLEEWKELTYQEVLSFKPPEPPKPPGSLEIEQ

[3] = target: T2, Protein kinase C zeta type (Homo sapiens) (UniProt Q05513); experiment: Inhibition of PKCzeta (unknown origin) at 10 uM incubated for 30 mins in presence of [gamma-33P]ATP by multidrop micro reagent based assay relative to control; values are per cent of control
T2 sequence (whole entry): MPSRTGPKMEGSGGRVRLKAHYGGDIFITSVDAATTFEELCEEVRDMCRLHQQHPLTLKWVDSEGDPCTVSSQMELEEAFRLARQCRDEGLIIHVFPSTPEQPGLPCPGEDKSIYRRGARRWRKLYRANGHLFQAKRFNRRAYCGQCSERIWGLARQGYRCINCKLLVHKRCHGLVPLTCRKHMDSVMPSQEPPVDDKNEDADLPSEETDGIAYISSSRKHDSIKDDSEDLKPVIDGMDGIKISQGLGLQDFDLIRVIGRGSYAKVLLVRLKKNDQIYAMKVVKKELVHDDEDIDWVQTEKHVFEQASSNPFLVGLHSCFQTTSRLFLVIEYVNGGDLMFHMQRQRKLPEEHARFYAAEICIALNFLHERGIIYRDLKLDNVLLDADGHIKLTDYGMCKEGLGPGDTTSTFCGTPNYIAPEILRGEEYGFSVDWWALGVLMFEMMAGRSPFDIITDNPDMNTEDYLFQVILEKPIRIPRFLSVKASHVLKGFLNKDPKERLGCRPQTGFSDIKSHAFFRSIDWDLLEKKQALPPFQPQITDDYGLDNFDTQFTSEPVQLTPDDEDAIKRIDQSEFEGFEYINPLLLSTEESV

[4] = test system: Leucine-rich repeat serine/threonine-protein kinase 2 (Homo sapiens), Q5S007 [G2019S]; experiment: Inhibition of LRRK2 G2019S mutant (unknown origin) at 10 uM incubated for 30 mins in presence of [gamma-33P]ATP by multidrop micro reagent based assay relative to control
Sequence of Leucine-rich repeat serine/threonine-protein kinase 2 (Homo sapiens), Q5S007 [G2019S] (Q5S007 whole entry G2019S): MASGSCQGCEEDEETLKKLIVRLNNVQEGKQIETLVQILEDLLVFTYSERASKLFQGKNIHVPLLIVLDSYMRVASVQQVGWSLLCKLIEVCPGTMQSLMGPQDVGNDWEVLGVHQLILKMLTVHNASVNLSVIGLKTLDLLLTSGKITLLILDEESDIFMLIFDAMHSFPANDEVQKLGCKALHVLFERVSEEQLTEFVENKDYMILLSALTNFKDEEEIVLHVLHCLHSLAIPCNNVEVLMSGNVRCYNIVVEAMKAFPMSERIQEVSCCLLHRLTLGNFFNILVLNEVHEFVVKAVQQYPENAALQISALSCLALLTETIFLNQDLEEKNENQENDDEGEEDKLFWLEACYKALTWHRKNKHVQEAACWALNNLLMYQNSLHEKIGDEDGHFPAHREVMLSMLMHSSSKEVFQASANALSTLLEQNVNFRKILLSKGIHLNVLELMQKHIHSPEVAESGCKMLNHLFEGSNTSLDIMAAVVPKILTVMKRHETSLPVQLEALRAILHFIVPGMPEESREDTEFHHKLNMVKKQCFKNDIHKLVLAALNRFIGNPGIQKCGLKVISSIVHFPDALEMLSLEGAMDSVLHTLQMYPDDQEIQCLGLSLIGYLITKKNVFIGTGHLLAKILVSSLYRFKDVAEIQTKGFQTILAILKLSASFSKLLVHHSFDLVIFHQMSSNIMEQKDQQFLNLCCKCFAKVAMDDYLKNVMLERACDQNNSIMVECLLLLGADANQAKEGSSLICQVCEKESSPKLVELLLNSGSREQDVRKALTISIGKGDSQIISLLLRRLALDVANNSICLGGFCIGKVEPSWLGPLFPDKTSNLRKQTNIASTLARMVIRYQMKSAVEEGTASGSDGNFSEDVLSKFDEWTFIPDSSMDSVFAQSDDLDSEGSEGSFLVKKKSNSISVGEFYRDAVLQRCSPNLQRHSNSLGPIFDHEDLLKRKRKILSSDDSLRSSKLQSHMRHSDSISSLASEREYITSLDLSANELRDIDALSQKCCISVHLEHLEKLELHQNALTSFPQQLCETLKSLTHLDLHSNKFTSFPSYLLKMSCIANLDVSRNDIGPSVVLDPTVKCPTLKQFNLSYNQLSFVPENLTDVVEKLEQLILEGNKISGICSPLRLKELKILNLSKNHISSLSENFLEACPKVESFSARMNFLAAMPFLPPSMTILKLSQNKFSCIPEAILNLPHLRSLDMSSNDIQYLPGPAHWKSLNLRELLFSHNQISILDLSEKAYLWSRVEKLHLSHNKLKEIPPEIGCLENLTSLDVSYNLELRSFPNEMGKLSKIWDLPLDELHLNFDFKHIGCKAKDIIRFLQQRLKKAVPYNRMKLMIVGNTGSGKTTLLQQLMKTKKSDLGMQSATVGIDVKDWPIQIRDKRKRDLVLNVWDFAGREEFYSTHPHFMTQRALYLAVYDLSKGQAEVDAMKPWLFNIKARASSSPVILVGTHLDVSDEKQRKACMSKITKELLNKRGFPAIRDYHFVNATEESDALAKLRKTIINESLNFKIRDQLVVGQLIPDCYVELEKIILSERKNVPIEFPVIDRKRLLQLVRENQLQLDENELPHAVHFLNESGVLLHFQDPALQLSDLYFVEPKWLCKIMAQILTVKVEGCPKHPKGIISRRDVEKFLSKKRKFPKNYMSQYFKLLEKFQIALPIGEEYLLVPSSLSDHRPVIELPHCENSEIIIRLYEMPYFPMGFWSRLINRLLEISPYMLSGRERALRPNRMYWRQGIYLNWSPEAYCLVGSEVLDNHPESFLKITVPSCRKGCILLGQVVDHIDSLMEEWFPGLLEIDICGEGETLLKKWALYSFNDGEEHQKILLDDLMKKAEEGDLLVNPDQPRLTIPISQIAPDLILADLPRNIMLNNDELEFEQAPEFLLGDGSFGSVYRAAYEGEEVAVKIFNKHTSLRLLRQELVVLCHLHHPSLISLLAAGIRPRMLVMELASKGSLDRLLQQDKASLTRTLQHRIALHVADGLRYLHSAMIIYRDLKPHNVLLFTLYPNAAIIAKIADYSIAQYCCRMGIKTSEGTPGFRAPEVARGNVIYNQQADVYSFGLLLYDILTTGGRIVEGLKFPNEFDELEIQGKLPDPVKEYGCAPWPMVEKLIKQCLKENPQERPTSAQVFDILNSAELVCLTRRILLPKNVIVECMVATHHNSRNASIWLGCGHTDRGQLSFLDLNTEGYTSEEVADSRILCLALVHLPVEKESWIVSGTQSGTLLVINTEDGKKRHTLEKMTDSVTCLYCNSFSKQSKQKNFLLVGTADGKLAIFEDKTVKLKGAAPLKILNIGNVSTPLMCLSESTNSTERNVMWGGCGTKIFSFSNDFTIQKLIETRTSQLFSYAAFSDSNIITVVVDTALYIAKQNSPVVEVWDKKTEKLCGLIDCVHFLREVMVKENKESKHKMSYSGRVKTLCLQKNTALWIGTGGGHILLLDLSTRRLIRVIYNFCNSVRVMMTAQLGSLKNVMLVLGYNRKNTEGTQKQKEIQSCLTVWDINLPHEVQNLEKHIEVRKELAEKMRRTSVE

[5] = target: Dual specificity mitogen-activated protein kinase kinase 1 (Homo sapiens) (UniProt Q02750); experiment: Inhibition of MKK1 (unknown origin) at 10 uM incubated for 30 mins in presence of [gamma-33P]ATP by multidrop micro reagent based assay relative to control
Sequence of Dual specificity mitogen-activated protein kinase kinase 1 (Homo sapiens) (Q02750 whole entry): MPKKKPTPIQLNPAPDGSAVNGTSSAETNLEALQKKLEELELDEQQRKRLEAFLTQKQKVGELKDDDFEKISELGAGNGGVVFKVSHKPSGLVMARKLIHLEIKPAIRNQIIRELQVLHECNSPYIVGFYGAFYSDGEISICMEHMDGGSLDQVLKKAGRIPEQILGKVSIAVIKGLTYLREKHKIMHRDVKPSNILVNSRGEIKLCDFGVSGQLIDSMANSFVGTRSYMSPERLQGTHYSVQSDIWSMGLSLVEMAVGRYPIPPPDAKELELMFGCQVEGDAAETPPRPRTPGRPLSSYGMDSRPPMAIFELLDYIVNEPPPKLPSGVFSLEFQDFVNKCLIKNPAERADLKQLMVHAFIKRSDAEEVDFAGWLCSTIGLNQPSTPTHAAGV

[6] = target: Calcium/calmodulin-dependent protein kinase type 1 (Homo sapiens) (UniProt Q14012); experiment: Inhibition of CaMK1 (unknown origin) at 10 uM incubated for 30 mins in presence of [gamma-33P]ATP by multidrop micro reagent based assay relative to control; values are per cent of control
Sequence of Calcium/calmodulin-dependent protein kinase type 1 (Homo sapiens) (Q14012 whole entry, looked up): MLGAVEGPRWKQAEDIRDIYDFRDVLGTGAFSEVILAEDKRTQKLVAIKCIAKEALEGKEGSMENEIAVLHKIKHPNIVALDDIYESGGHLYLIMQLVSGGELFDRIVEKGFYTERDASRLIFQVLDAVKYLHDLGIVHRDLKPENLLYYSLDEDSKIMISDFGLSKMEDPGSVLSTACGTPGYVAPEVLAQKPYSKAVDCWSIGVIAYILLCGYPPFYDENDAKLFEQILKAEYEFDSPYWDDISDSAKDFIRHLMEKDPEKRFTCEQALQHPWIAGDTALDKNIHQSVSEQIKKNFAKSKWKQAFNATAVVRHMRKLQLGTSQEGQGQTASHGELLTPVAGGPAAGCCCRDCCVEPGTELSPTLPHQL

[7] = target: T3, Eukaryotic elongation factor 2 kinase (Homo sapiens) (UniProt O00418); experiment: Inhibition of EF2K (unknown origin) at 10 uM incubated for 30 mins in presence of [gamma-33P]ATP by multidrop micro reagent based assay relative to control; values are per cent of control
T3 sequence (whole entry): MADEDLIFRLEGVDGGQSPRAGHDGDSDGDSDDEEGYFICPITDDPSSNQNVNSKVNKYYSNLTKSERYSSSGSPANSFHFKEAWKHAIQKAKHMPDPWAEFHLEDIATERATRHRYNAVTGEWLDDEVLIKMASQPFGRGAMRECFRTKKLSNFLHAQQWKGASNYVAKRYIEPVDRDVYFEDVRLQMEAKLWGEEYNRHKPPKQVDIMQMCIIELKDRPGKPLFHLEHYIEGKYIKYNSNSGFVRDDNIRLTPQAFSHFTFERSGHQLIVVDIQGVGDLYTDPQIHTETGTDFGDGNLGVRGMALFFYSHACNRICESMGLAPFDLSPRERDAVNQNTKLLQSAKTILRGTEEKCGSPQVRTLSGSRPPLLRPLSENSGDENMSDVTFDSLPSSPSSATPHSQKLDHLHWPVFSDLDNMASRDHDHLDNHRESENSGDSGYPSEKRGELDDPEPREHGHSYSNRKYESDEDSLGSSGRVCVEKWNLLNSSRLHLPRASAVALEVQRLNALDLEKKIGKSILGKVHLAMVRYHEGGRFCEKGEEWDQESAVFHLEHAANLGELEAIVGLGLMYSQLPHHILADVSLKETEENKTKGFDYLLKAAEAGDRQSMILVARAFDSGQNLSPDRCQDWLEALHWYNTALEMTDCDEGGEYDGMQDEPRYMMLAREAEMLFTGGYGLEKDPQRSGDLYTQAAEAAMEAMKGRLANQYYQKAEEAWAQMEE

[8] = target: Mitogen-activated protein kinase 9 (Homo sapiens) (UniProt P45984); experiment: Inhibition of JNK2 (unknown origin) at 1 uM incubated for 30 mins in presence of [gamma-33P]ATP by multidrop micro reagent based assay relative to control; values are per cent of control
Sequence of Mitogen-activated protein kinase 9 (Homo sapiens) (P45984 whole entry, looked up): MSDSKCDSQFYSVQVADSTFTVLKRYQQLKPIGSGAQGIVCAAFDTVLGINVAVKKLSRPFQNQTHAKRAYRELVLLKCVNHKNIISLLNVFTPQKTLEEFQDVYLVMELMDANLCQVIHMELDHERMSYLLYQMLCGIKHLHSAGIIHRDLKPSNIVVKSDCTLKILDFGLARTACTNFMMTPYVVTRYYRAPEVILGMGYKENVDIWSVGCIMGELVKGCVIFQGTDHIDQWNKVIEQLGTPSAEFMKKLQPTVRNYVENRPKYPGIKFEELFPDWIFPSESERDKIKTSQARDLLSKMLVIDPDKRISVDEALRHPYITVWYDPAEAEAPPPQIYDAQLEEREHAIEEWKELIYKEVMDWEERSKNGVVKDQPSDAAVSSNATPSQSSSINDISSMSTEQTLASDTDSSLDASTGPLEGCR

SMILES | residual activity [1] [%] | residual activity [2] [%] | residual activity [3] [%] | inhibition [4] [%] | inhibition [5] [%] | residual activity [6] [%] | residual activity [7] [%] | residual activity [8] [%]
C[C@@H](N)[C@H]1CC[C@H](C(=O)Nc2ccncc2)CC1 | 69 | 101 | 69 | 11 | 71 | 85 | 81 | –
O=S(=O)(c1cccc2cnccc12)N1CCCNCC1 [FASUDIL] | 110 | 111 | 66 | 67 | 41 | 109 | 120 | –
CCn1c(-c2nonc2N)nc2cnc(Oc3cccc(NC(=O)c4ccc(OCCN5CCOCC5)cc4)c3)cc21 [GSK-269962A] | – | – | – | – | – | – | – | 101
CC1=C(C(=O)Nc2cc3cn[nH]c3cc2F)C(c2ccc(C(F)(F)F)cc2)CC(=O)N1 (stereo unspecified) | – | – | – | – | – | – | – | 101
